Data on one compound can be found in patent US4198504A, “[3-(Pyridinium)-7-(naphthyiridinyl carbonylamino)acetamido]cephalosporanic acid derivatives” (Bristol-Myers Company, priority 1978, dated 1980).

In one series the test system is Ps. aeruginosa. Briefly: In vitro MIC, serial two-fold agar dilution, primary evaluation Ps (6 strains). To be noted: CBPC = 100%; geometric mean of MICs; Mueller-Hinton agar. The class given is cell-based. An outline of the steps:
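MIC by serial two-fold agar dilution on Mueller-Hinton agar (Steers' apparatus) against 6 Pseudomonas aeruginosa strains in primary screening. Values expressed as relative activity versus carbenicillin set at 100%, based on geometric mean MIC.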
Background: In agar dilution the substance is mixed into plates at graded concentrations.

A short description of a further series: Solubility in water. To be noted: lyophilized product, read-out: dissolved readily in water to give a solution. The class given is physicochemical. As for the experimental part:
This unfortunate characteristic renders them unsuitable for use by intravenous administration. Acceptable solubility for such use is at least 125 mgm./ml. so that 250 mgm. can be administered in 2 ml. of sterile solution. Suspensions cannot, of course, be administered intravenously. […] The latter would make possible a dosage of 500 mgm. in a 2 ml. vial.
To a mixture of nicotinic acid (492 mg., 4 m.moles) and NaHCO3 (336 mg., 4 m.moles) in 2 ml. of water were added sodium 7-[D-α-(4-hydroxy-1,5-naphthyridine-3-carboxamido)-α-phenylacetamido]cephalosporanate^(3), (600 mg., 1 m.mole) and KSCN (2.4 g., 25 m.moles) and the mixture was allowed to stand overnight at 50°-52° C. The reaction mixture was placed on the top of an HP-20 column (.phi. 10 mm., 90 ml.). The column was developed with 1 L each of water, 30% aqueous MeOH and 50% aqueous MeOH. The eluate was collected in 20-ml. fractions, monitoring with tlc (silica-gel plate, CH3 CN:H2 O=4:1, detected with I2). The desired product was found in the fractions eluted with 30% aqueous MeOH, which were combined and concentrated under reduced pressure. The concentrates showing a neutral pH were lyophilized to give 105 mg. (16%) of BB-S606, which dissolved readily in water to give a 25% (w/v) solution. It started to melt around 280° C. with gradual decomposition.

Series [1] has as its system Pseudomonas aeruginosa A9843. Briefly: In vivo efficacy, experimental infection in mice, intramuscular treatment, Pseudomonas aeruginosa A9843. Further details: species or system Pseudomonas aeruginosa (infected mice). The following applies: A9843, im, 120 h, I.M., 100×LD50 challenge i.p., 5 days, read-out: PD50 Pseudomonas aeruginosa A9843. As for the experimental part:
(§1) The in vivo efficacy was evaluated by intramuscular treatment against three kinds of experimental infection in mice.
(§2) The in vivo tests were carried out using the following three pathogenic organisms:
Pseudomonas aeruginosa A9843
(§3) Mice were challenged intraperitoneally with approximately a 100×LD50 dose of the pathogens in a 5% mucin suspension. The mice were treated with test compound by I.M. route immediately after the bacterial challenge.

Series [2] in a line: Antibiotic blood levels in mice following intramuscular administration (paper disc-agar diffusion, Escherichia coli NIHJ as assay organism). It is filed as in vivo. To be noted: mouse, im, I.M., 20 mg./kg. As for the experimental part:
Antibiotic blood levels were determined in mice following intramuscular administration of the test compounds at 20 mg./kg. The blood samples were collected from the orbital sinuses into heparinized capillary tubes at 15, 30, 60 and 120 minutes after administration. The antibiotic concentration was determined by the paper disc-agar diffusion method using Escherichia coli NIHJ as the assay organism.

Series [3] has as its system Staphylococcus aureus Smith. Briefly: In vivo efficacy, experimental infection in mice, intramuscular treatment, Staphylococcus aureus Smith. Also noted: species or system Staphylococcus aureus (infected mice). The following applies: im, 120 h, I.M., 100×LD50 challenge i.p., 5 days, read-out: PD50 Staphylococcus aureus Smith. Here is the method: as §1, §2
Staphylococcus aureus Smith
as §3

The next series relates to Pseudomonas aeruginosa. Briefly: In vitro MIC, serial two-fold agar dilution, secondary evaluation against Pseudomonas aeruginosa strains. It is filed as cell-based. The following applies: CBPC = 100%; geometric mean of MICs; 61-64 strains. An outline of the steps:
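Two-fold serial agar dilution on Mueller-Hinton agar (Steers' apparatus) against 64 P. aeruginosa strains. Values are relative activity versus carbenicillin set at 100%, based on geometric mean MICs.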

The subject of series [4] is Ent. cloacae (3), Pr. vulgaris (1), Pr. morganii (1), S. marcescen (1). Briefly: In vitro MIC, serial two-fold agar dilution, primary evaluation Gn-II (Ent. cloacae, Pr. vulgaris, Pr. morganii, S. marcescens). The class given is cell-based. To be noted: CBPC = 100%; geometric mean of MICs; Mueller-Hinton agar. Put shortly: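 MICs by two-fold serial agar dilution on Mueller-Hinton agar with a Steers replicator. Reported as activity relative to carbenicillin set at 100%, computed from geometric mean MICs over the strains in each group.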

The subject of the next series is S. aureus. Briefly: In vitro MIC, serial two-fold agar dilution, primary evaluation Gp (S. aureus, 6 strains). It is filed as cell-based. To be noted: CBPC = 100%; geometric mean of MICs; Mueller-Hinton agar. An outline of the steps:
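Two-fold serial agar dilution on Mueller-Hinton agar (Steers' replicator); GP group is 6 S. aureus strains. Values are relative activity versus carbenicillin (set at 100%), calculated from the geometric mean of the group's MICs.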

For series [5], the system named is E. coli (9), Klebsiella sp. (2), Pr. mirabilis (1), Sal. enteritidis (1). Briefly: In vitro MIC, serial two-fold agar dilution, primary evaluation Gn-I (E. coli, Klebsiella sp., Pr. mirabilis, Sal. enteritidis). It is filed as cell-based. The following applies: CBPC = 100%; geometric mean of MICs; Mueller-Hinton agar. Put shortly:
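Two-fold serial agar dilution on Mueller-Hinton agar, inoculated with a Steers' replicator. Activity is expressed relative to carbenicillin set at 100%. Values are based on the geometric mean MIC per organism group.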

SMILES strings stand for the structures. In brackets after ≈: the same amount, converted by molar mass.

Usually half-life stands for the time in which the quantity being followed falls by half. `O=C([O-])C1=C(C[n+]2cccc(C(=O)O)c2)CSC2C(NC(=O)[C@H](NC(=O)c3cnc4cccnc4c3O)c3ccccc3)C(=O)N12` (stereo partly drawn) [BB-S606, 7-[D-α-(4-Hydroxy-1,5-naphthyridine-3-carboxamido)-α-phenyl-acetamido]-3-(3-carboxypyridinium)methyl-3-cephem-4-carboxylate]: the “In vitro relative activity, primary evaluation Ps (6)” value with Ps. aeruginosa is on record as 656%. In addition, the solubility in the series “Solubility in water” came to 250 mg/mL (≈ 390 mM). The results for the ED50 in [1] and in [3] were 25 mg/kg and 4.2 mg/kg, respectively. Moreover, the half-life in [2] (read-out: Blood level, Half-life) was found to be 55 min. Also, the Cmax in series [2] (read-out: Blood level, Peak Concentration) was 11000 ng/mL. Moreover, the “In vitro relative activity, secondary, Pseudomonas aeruginosa (61-64)” value in the series on Pseudomonas aeruginosa was found to be 624%. In addition, in series [4], the “In vitro relative activity, primary evaluation Gn-II (6)” value is on record as 11%. Also, the “In vitro relative activity, primary evaluation Gp (6)” value with S. aureus amounted to 45%. In addition, the “In vitro relative activity, primary evaluation Gn-I (13)” value in [5] was found to be 16%.
